The text below walks through data of publication PMC11268423 (Science Advances, 2024).

Structures are written as SMILES.

What all share (experiment): microbe, parasite or virus in culture
Common to all, as to assay type: cell-based

Assay [1] deals with SARS-CoV-2 WA-1 (P1). Particulars: Severe acute respiratory syndrome coronavirus 2.
Assay [2] has as its system SARS-CoV-2 WA-1 (P1). As to conditions: Severe acute respiratory syndrome coronavirus 2, A549-ACE2.
The subject of the next assay is SARS-CoV-2 WA-1 strain. As to conditions: Severe acute respiratory syndrome coronavirus 2.

In general, EC50 refers to the concentration at which the effect is half-maximal. Lower therefore signals a more potent agent. A word on the EC90: it is the concentration at which the effect reaches the 90% level. The low end stands for an effect from little substance, the high end for a need for much substance. Regarding `CC(C)(C)[C@H](NC(=O)C(F)(F)F)C(=O)N1C[C@H]2[C@@H]([C@H]1C(=O)N[C@H](C#N)C[C@@H]1CCNC1=O)C2(C)C` [Nirmatrelvir], the figures for the concentration giving a half-maximal response (EC50) in the assay on SARS-CoV-2 WA-1 (P1) [1], in the assay with SARS-CoV-2 WA-1 (P1) [2] and in the assay with SARS-CoV-2 WA-1 strain were 34.8 nM, 54 nM and 150 nM, respectively. For the same compound, in the assay with SARS-CoV-2 WA-1 strain, the EC90 came to 370 nM.
On to `CCC(CC)COC(=O)[C@H](C)N[P@](=O)(OC[C@H]1O[C@@](C#N)(c2ccc3c(N)ncnn23)[C@H](O)[C@@H]1O)Oc1ccccc1` [Remdesivir], for which the values for the EC50 with SARS-CoV-2 WA-1 (P1) [1] and in the assay with SARS-CoV-2 WA-1 (P1) [2] were 29.1 nM and 75 nM, respectively.
